Laboratory results as given in patent US20240368123A1, “AROMATIC RING-CONTAINING BIOLOGICAL ANTAGONIST, AND PREPARATION METHOD THEREFOR AND USE THEREOF” (SHANGHAI HANSOH BIOMEDICAL CO., LTD., priority 2021, published 2024).

What was measured:
AT1 receptors = biological target: T1, AT1 receptors (Homo sapiens, UniProt P30556); experiment: Effect on calcium current in cells stably expressing AT1 receptors (FLIPR, antagonist mode); type: cell-based; settings: HEK293-AT1 cells, Fluo-8 AM, FLIPR Tetra; read-out: IC50 values of compounds on calcium current in cells stably expressing AT1 receptors
T1 construct: host or cells: HEK293
T1 sequence (P30556 1-359): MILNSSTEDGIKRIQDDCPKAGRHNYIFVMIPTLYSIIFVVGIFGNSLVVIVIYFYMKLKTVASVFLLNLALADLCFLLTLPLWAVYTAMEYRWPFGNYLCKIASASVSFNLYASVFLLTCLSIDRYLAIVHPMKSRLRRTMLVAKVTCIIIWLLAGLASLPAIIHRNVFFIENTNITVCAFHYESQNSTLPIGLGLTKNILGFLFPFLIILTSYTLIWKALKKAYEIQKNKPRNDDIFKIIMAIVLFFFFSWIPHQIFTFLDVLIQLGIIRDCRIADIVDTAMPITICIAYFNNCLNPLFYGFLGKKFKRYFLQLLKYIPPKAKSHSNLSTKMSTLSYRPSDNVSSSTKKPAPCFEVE
Description: Test Example 1. Determination of the Effect of the Compounds of the Present Invention on Calcium Current in Cells Stably Expressing AT1 Receptors
Antagonistic effect of test compounds on HEK293-AT1 cell activity
• DMEM, high glucose (Gibco: 12100); • Fetal bovine serum (Biosera: FB-1058/500); • P/S (Biosera: XC-A4122); • 5× Matrigel (Corning: 354230); • HBSS (Sigma: H1387); • HEPES (Invitrogen: 15630080); • Fluo-8 AM (AAT Bioquest: 21080); • Probenecid (Sigma: P8761); • Pluronic F-127 (Sigma: P2443-250G); • Angiotensin III TFA (MCE: HY-113035A); • Irbesartan (MCE: HY—B0202); • 1000× Fluo-8 AM (2 mM): Fluo-8 AM was dissolved in DMSO, the mixture was shaken for 1-2 min, sub-packaged and stored at −20° C.; • Complete culture medium: DMEM+10% FBS+1×P/S; • Cell seeding medium: DMEM+10% FBS+1×PS; • Experimental buffer 1: 1×HBSS+20 mM HEPES+1 mM Probenecid+0.025% Pluronic F-127; • Experimental buffer 2: 1×HBSS+20 mM HEPES+0.075% Pluronic F-127; • 1× Matrigel: 5× Matrigel was diluted with DMEM; • Cell line: HDB HEK293-AT1.
• 1) HEK293-AT1 cell line was cultured in complete culture medium at 37° C., 5% CO2 to 70%-90% confluence. • 2) the 384-well cell plate was coated with 1× Matrigel with 5 μL/well at room temperature for 10 to 30 min. • 3) the cells were digested and resuspended in cell seeding medium, inoculation was performed at 8,000 cells/well/20 μL in a 384-well cell culture plate, and the cells were cultured at 37° C., 5% CO2 for 24 h. • 4) the cell culture plate was taken out of the CO2 incubator and equilibrated at room temperature for 10 min. • 5) 1000× Fluo-8 AM was taken and diluted to 1× Fluo-8 AM with experimental buffer 1 that has been equilibrated to room temperature, with a concentration of 2 μM. • 6) the culture medium was removed from the cell culture plate, 20 μL of 1× Fluo-8 AM was added to each well, the mixture was centrifuged at 300 rpm for 60 seconds at room temperature, and incubated at room temperature in the dark for 1 h. • 7) positive control compound and test compound working solution (3×) were formulated: • (1) instrument Bravo was used to dilute the compound to 11 concentration points on the 384-well Echo compound plate (LABCYTE: LP-0200); • (2) instrument ECHO was used to transfer 90 nL of compound per well (compound storage concentration, such as the highest concentration point 10 mM) to the 384-well compound plate (PE: 6008590); • (3) Multidrop Combi was used to add 30 μL of experimental buffer 2 to the 384-well compound plate (PE: 6008590), the positive control compound and test compound were diluted to 30 μM (3×), and placed at room temperature until use. • 8) FLIPR Tetra was used to add 10 μL of diluted 3× compound into the experimental well of the corresponding 384-well cell plate, the compound and cells were incubated for 10 min at room temperature, then 10 μL of diluted 4× agonist was added, and the data was read and collected at the same time.
FLIPR Tetra was used to read and collect the fluorescence signal value (RFU). The maximum RFU value was used to calculate the percent activation data based on the readings of the Low control (DMSO control) and High control (100 nM positive compound) experimental groups {% activation rate=(RFUsample−RFUlow control)/(RFUhigh control−RFUlow control)×100}. The concentration of the test compound was 11 concentrations after diluting the reaction system 3 times, ranging from 10 uM to 0.17 nM.

[1] = Rat pharmacokinetic evaluation test, oral administration; type: in vivo; settings: male, SD rats, p.o. 5 mg/kg, plasma
Method: SD rats were used as test animals to study the pharmacokinetic behavior of the compounds of the present invention in the rat body (plasma) after oral administration at a dose of 5 mg/kg.
3 SD rats/group, male, from Shanghai Jiesijie Experimental Animal Co., Ltd., animal production license number (SCXK (Shanghai) 2013-0006 N0.311620400001794).
• 0.5% CMC-Na (1% Tween80) was dissolved with ultrasound, and formulated into a clear solution or homogeneous suspension.
• p.o. respectively after the rats were fasted overnight; • the p.o. dose was 5 mg/kg and the administration volume was 10 mL/kg.
After oral administration of rats, 0.2 mL of blood was collected from the jugular vein at 0.25 h, 0.5 h, 1.0 h, 2.0 h, and 4.0 h, placed in an EDTA-2K test tube, centrifuged at 6000 rpm for 6 min at 4° C. to separate plasma which was stored at −80° C.; the rats can eat 4 h after administration.
• 1) 160 μL of acetonitrile was added to 40 μL of plasma sample for precipitation, mixed and centrifuged at 3500×g for 5 to 20 min. • 2) the treated supernatant solution was taken and subjected to LC/MS/MS to analyze the concentrations of the test compounds. LC/MS/MS analysis instrument: AB Sciex API 4000 Qtrap.
• Liquid phase conditions: Shimadzu LC-20AD pump • chromatographic column: AgilentZORBAX XDB-C18 (50×2.1 mm, 3.5 μm) mobile phase: liquid A was 0.1% aqueous formic acid solution, liquid B was acetonitrile • flow rate: 0.4 mL/min • Elution time: 0-4.0 min, the eluent was as follows:
The main pharmacokinetic parameters were calculated using WinNonlin 6.1.

Row | SMILES | IC50 (AT1 receptors) [nM] | further results
1 | CCCCC1=NC2(CCCC2)C(=O)N1Cc1ccc(-c2ccccc2S(=O)(=O)Nc2noc(C)c2Cl)c(OCCC)c1 [Example 55, 4′-((2-butyl-4-oxo-1,3-diazaspiro[4.4]non-1-en-3-yl)methyl)-N-(4-chloro-5-methylisoxazol-3-yl)-2′-propoxy-[1,1′-biphenyl]-2-sulfonamide] | 3.7 | –
2 | CCCCC1=NC2(CCCC2)C(=O)N1Cc1ccc(-c2ccccc2S(=O)(=O)Nc2noc(C)c2C)c(COCC2CC2)c1 [Example 14, 4′-((2-butyl-4-oxo-1,3-diazaspiro[4.4]non-1-en-3-yl)methyl)-2′-((cyclopropylmethoxy)methyl)-N-(4,5-dimethylisoxazol-3-yl)-[1,1′-biphenyl]-2-sulfonamide] | 6.9 | AUC(0-inf) [1]: 11300 ng·h/mL; Cmax [1]: 2320 ng/mL; Tmax [1]: 0.5 h; MRT inf ([1]; read-out: MRT0-∞): 5.3 h
3 | CCCCC1=NC2(CCCC2)C(=O)N1Cc1ccc(-c2ccccc2S(=O)(=O)Nc2noc(C)c2Cl)c(COC2CC2)c1 [Example 52, 4′-((2-butyl-4-oxo-1,3-diazaspiro[4.4]non-1-en-3-yl)methyl)-N-(4-chloro-5-methylisoxazol-3-yl)-2′-(cyclopropoxymethyl)-[1,1′-biphenyl]-2-sulfonamide] | 8.6 | –
4 | CCCCC1=NC2(CCCC2)C(=O)N1Cc1ccc(-c2ccccc2S(=O)(=O)Nc2noc(C)c2Cl)c(COC)c1 [Example 53, 4′-((2-butyl-4-oxo-1,3-diazaspiro[4.4]non-1-en-3-yl)methyl)-N-(4-chloro-5-methylisoxazol-3-yl)-2′-(methoxymethyl)-[1,1′-biphenyl]-2-sulfonamide] | 9.1 | –
5 | CCCCC1=NC2(CCCC2)C(=O)N1Cc1ccc(-c2ccccc2S(=O)(=O)Nc2noc(C)c2Cl)c(COCC2CC2)c1 [Example 85, 4′-((2-butyl-4-oxo-1,3-diazospiro[4.4]non-1-en-3-yl)methyl)-N-(4-chloro-5-methylisoxazol-3-yl)-2′-((cyclopropylmethoxy)methyl)-[1,1′-biphenyl]-2-sulfonamide] | 5.2 | –
6 | CCCCC1=NC2(CCCC2)C(=O)N1Cc1ccc(-c2ccccc2S(=O)(=O)Nc2noc(C)c2Cl)c(COC(C)C)c1 [Example 72, 4′-((2-butyl-4-oxo-1,3-diazaspiro[4.4]non-1-en-3-yl)methyl)-N-(4-chloro-5-methylisoxazol-3-yl)-2′-(isopropoxymethyl)-[1,1′-biphenyl]-2-sulfonamide] | 6.1 | –
7 | CCCCC1=NC2(CCCC2)C(=O)N1Cc1ccc(-c2ccccc2S(=O)(=O)Nc2noc(C)c2C)c(COC2CC2)c1 [Example 13, 4′-((2-butyl-4-oxo-1,3-diazaspiro[4.4]non-1-en-3-yl)methyl)-2′-(cyclopropoxymethyl)-N-(4,5-dimethylisoxazol-3-yl)-[1,1′-biphenyl]-2-sulfonamide] | 10 | –
